In the NIST ThermoML archive (doi:10.1016/j.tca.2018.05.020):
± gives the expanded uncertainty stated by the source.

Legend:
[1] = DSC
[2] = Molar enthalpy of transition or fusion; conditions: Crystal; DSC

Triple point temperature ([1]; Crystal): 469.15 ± 1 K
Glass transition temperature ([1]; Glass): 85.00 ± 1 °C
Molar enthalpy of transition or fusion [2]: 36 ± 0.93 kJ/mol
Compound: CNC(=O)c1ccc(N2C(=S)N(c3ccc(C#N)c(C(F)(F)F)c3)C(=O)C2(C)C)cc1F [Enzalutamide]
